Data published in PMC12303054, “First-in-class inhibitors of Nsp15 endoribonuclease of SARS-CoV-2: Modeling, synthesis, and enzymatic assay of thiazolidinedione and rhodanine analogs” (The Journal of Biological Chemistry, 2025).

What was measured:
Assay type in all cases: biochemical
Conditions in all cases: 100 µM
[1] = target: Lys345Ala SARS-CoV-2 Nsp15 (Severe acute respiratory syndrome coronavirus 2, UniProt P0DTD1, K6796A)
[2] = target: Tyr343Ala SARS-CoV-2 Nsp15 (Severe acute respiratory syndrome coronavirus 2, UniProt P0DTD1, Y6794A)
[3] = target: His250Ala SARS-CoV-2 Nsp15 (Severe acute respiratory syndrome coronavirus 2, UniProt P0DTD1, H6701A)
[4] = target: Ser294Ala SARS-CoV-2 Nsp15 (Severe acute respiratory syndrome coronavirus 2, UniProt P0DTD1, S6745A)

Measured: residual activity retained

O=C1NC(=S)SC1=CC=Cc1ccnc2ccccc12 [KCO237, 5-(3-quinolin-4-yl-allylidene)-2-thioxo-thiazolidine-4-one]
approximately 50%: all assays above
